This is an account of results in patent publication US9346815B2, “5-chloro-2-difluoromethoxyphenyl pyrazolopyrimidine compounds, compositions and methods of use thereof” (Genentech, Inc., priority 2014, dated 2016).

Each structure is given as a SMILES string.

For assay [1], the target named is isolated recombinant JAK2 kinase domain (Homo sapiens (Human), UniProt O60674). Kind of assay: JAK2 enzyme assay (Caliper LabChip, peptide phosphorylation). The settings on record: 25 μM ATP. It counts as biochemical.
Sequence of isolated recombinant JAK2 kinase domain (O60674 849-1124): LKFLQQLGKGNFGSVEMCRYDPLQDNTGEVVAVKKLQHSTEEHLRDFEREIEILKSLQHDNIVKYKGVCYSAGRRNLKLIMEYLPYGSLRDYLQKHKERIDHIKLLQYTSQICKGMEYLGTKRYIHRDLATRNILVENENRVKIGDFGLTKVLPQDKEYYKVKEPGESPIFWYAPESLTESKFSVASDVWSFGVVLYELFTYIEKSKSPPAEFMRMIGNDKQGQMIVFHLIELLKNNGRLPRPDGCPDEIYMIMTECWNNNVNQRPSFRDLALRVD
Assay [2] has as its target isolated recombinant JAK1 kinase domain (Homo sapiens (Human), UniProt P23458). Nature of the assay: JAK1 enzyme assay (Caliper LabChip, peptide phosphorylation). It counts as biochemical. The note with it: isolated recombinant JAK1 kinase domain, 25 μM ATP.
Assay [3] relates to JAK1-dependent STAT6 phosphorylation downstream of IL-13 stimulation in TF-1 human erythroleukemia cells. Kind of assay: JAK1 pathway assay in TF-1 cells (IL-13-pSTAT6, MSD). It counts as cell-based. The settings on record: Homo sapiens, TF-1, TF-1 cells, read-out: IL13-pSTAT6 EC50_TF-1. The method, then:
JAK1 Pathway Assay in Cell Lines was Carried Out as Follows:
Inhibitor potency (EC50) was determined in cell-based assays designed to measure JAK1 dependent STAT phosphorylation.
In one assay approach, TF-1 human erythroleukemia cells obtained from the American Type Culture Collection (ATCC; Manassas, Va.) were used to measure JAK1-dependent STAT6 phosphorylation downstream of IL-13 stimulation. Prior to use in the assays, TF-1 cells were starved of GM-CSF overnight in OptiMEM medium (Life Technologies, Grand Island, N.Y.) supplemented with 0.5% charcoal/dextran stripped fetal bovine serum (FBS), 0.1 mM non-essential amino acids (NEAA), and 1 mM sodium pyruvate. The assays were run in 384-well plates in serum-free OptiMEM medium using 300,000 cells per well. In a second assay approach, BEAS-2B human bronchial epithelial cells obtained from ATCC were plated at 100,000 cells per well of a 96-well plate one day prior to the experiment. The BEAS-2B assay was run in complete growth medium (bronchial epithelial basal medium plus bulletkit; Lonza; Basel, Switzerland).
Test compounds were serially diluted 1:2 in DMSO and then diluted 1:50 in medium just before use. Diluted compounds were added to the cells, for a final DMSO concentration of 0.2%, and incubated for 30 min (for the TF-1 assay) or 1 hr (for the BEAS-2B assay) at 37° C. Then, cells were stimulated with human recombinant cytokine at their respective EC90 concentrations, as previously determined for each individual lot. Cells were stimulated with IL-13 (R&D Systems, Minneapolis, Minn.) for 15 min at 37° C. The TF-1 cell reactions were stopped by the direct addition of 10× lysis buffer (Cell Signaling Technologies, Danvers, Mass.), whereas the BEAS-2B cell incubations were halted by the removal of medium and addition of 1× lysis buffer. The resultant samples were frozen in the plates at −80° C. Compound mediated inhibition of STAT6 phosphorylation was measured in the cell lysates using MesoScale Discovery (MSD) technology (Gaithersburg, Md.).

Sequence of isolated recombinant JAK1 kinase domain (P23458 875-1153): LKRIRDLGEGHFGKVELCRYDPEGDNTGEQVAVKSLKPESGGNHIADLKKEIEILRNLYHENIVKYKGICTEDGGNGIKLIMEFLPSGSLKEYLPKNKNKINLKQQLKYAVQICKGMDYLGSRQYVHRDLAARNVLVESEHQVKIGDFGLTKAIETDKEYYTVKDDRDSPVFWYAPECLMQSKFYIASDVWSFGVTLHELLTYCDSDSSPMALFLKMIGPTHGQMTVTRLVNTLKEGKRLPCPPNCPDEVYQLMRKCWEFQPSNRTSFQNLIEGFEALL

With `O=C(Nc1cn(CC(=O)N2C[C@H]3CN(CCc4ccccc4)C[C@H]3C2)nc1-c1cc(Cl)ccc1OC(F)F)c1cnn2cccnc12` [Example 13, N-[1-[2-[(3aS,6aR)-2-(2-phenylethyl)-1,3,3a,4,6,6a-hexahydropyrrolo[3,4-c]pyrrol-5-yl]-2-oxo-ethyl]-3-[5-chloro-2-(difluoromethoxy)phenyl]pyrazol-4-yl]pyrazolo[1,5-a]pyrimidine-3-carboxamide], the Ki in assay [1] turned out to be 0.66 nM; in assay [2], 0.73 nM. For the same compound, in assay [3], the EC50 amounted to 22 nM.

Turning to `O=C(Nc1cn(CC(=O)N2C[C@H]3CN(CCCO)C[C@H]3C2)nc1-c1cc(Cl)ccc1OC(F)F)c1cnn2cccnc12` [Example 14, N-[1-[2-[(3aR,6aS)-2-(3-hydroxypropyl)-1,3,3a,4,6,6a-hexahydropyrrolo[3,4-c]pyrrol-5-yl]-2-oxo-ethyl]-3-[5-chloro-2-(difluoromethoxy)phenyl]pyrazol-4-yl]pyrazolo[1,5-a]pyrimidine-3-carboxamide], the Ki in assay [1] is 1.13 nM; in assay [2] it was 1.14 nM. The EC50 in assay [3] was 335 nM.

With `O=C(Nc1cn(CC(=O)N2C[C@@H]3CN(C(=O)OCCCO)C[C@@H]3C2)nc1-c1cc(Cl)ccc1OC(F)F)c1cnn2cccnc12` [Example 15, 3-hydroxypropyl (3aR,6aS)-2-[2-[3-[5-chloro-2-(difluoromethoxy)phenyl]-4-(pyrazolo[1,5-a]pyrimidine-3-carbonylamino)pyrazol-1-yl]acetyl]-1,3,3a,4,6,6a-hexahydropyrrolo[3,4-c]pyrrole-5-carboxylate], the results for the Ki in assay [1] and in assay [2] were 0.93 nM and 0.53 nM, respectively. Besides, the EC50 in assay [3] was determined as 334 nM.

Take `CN1C[C@@H]2CN(C(=O)Cn3cc(NC(=O)c4cnn5cccnc45)c(-c4cc(Cl)ccc4OC(F)F)n3)C[C@]2(c2ccccc2)C1` [Example 16, N-[1-[2-[(3aR,6aR)-2-methyl-3a-phenyl-3,4,6,6a-tetrahydro-1H-pyrrolo[3,4-c]pyrrol-5-yl]-2-oxo-ethyl]-3-[5-chloro-2-(difluoromethoxy)phenyl]pyrazol-4-yl]pyrazolo[1,5-a]pyrimidine-3-carboxamide]: the Ki in assay [1] is 0.56 nM; in assay [2], 0.62 nM. The EC50 in assay [3] worked out at 8.1 nM.

For `O=C(Nc1cn(CC(=O)N2C[C@H]3CN(CC4CCN(C(=O)OCc5ccccc5)CC4)C[C@H]3C2)nc1-c1cc(Cl)ccc1OC(F)F)c1cnn2cccnc12` [Example 17, benzyl 4-[[(3aR,6aS)-5-[2-[3-[5-chloro-2-(difluoromethoxy)phenyl]-4-(pyrazolo[1,5-a]pyrimidine-3-carbonylamino)pyrazol-1-yl]acetyl]-1,3,3a,4,6,6a-hexahydropyrrolo[3,4-c]pyrrol-2-yl]methyl]piperidine-1-carboxylate], the Ki in assay [1] was determined as 0.85 nM; in assay [2], 0.71 nM. For the same compound, the EC50 in assay [3] amounted to 80.9 nM.

With `O=C(Nc1cn(CC(=O)N2C[C@H]3CN(CCCN4CCCC4=O)C[C@H]3C2)nc1-c1cc(Cl)ccc1OC(F)F)c1cnn2cccnc12` [Example 18, N-[1-[2-[(3aR,6aS)-2-[3-(2-oxopyrrolidin-1-yl)propyl]-1,3,3a,4,6,6a-hexahydropyrrolo[3,4-c]pyrrol-5-yl]-2-oxo-ethyl]-3-[5-chloro-2-(difluoromethoxy)phenyl]pyrazol-4-yl]pyrazolo[1,5-a]pyrimidine-3-carboxamide], the Ki in assay [1] and in assay [2] was 0.56 nM throughout. Besides, the EC50 in assay [3] turned out to be 274 nM.

Take `O=C(Nc1cn(CC(=O)N2C[C@H]3CN(CCCN4CCOCC4)C[C@H]3C2)nc1-c1cc(Cl)ccc1OC(F)F)c1cnn2cccnc12` [Example 19, N-[1-[2-[(3aR,6aS)-2-(3-morpholinopropyl)-1,3,3a,4,6,6a-hexahydropyrrolo[3,4-c]pyrrol-5-yl]-2-oxo-ethyl]-3-[5-chloro-2-(difluoromethoxy)phenyl]pyrazol-4-yl]pyrazolo[1,5-a]pyrimidine-3-carboxamide]: the Ki in assay [1] came out at 0.71 nM; in assay [2], 0.72 nM. Further, in assay [3], the EC50 was determined as 379 nM.

For `O=C(Nc1cn(CC(=O)N2CC[C@@H]3CNCC[C@@H]32)nc1-c1cc(Cl)ccc1OC(F)F)c1cnn2cccnc12` [Example 20, N-[1-[2-[(3aR,7aS)-2,3,3a,4,5,6,7,7a-octahydropyrrolo[3,2-c]pyridin-1-yl]-2-oxo-ethyl]-3-[5-chloro-2-(difluoromethoxy)phenyl]pyrazol-4-yl]pyrazolo[1,5-a]pyrimidine-3-carboxamide], the figures for the Ki in assay [1] and in assay [2] were 1.21 nM and 0.51 nM, respectively. In assay [3], the EC50 was found to be 344 nM.

As for `O=C(Nc1cn(CC(=O)N2CC[C@H]3CNC[C@H]3C2)nc1-c1cc(Cl)ccc1OC(F)F)c1cnn2cccnc12` [Example 21, N-[1-[2-[(3aS,7aR)-1,2,3,3a,4,6,7,7a-octahydropyrrolo[3,4-c]pyridin-5-yl]-2-oxo-ethyl]-3-[5-chloro-2-(difluoromethoxy)phenyl]pyrazol-4-yl]pyrazolo[1,5-a]pyrimidine-3-carboxamide], the Ki in assay [1] came out at 1.16 nM; in assay [2] it was 0.47 nM. Further, the EC50 in assay [3] was determined as 3040 nM.

For `CC(=O)N1CCC(CN2C[C@@H]3CN(C(=O)Cn4cc(NC(=O)c5cnn6cccnc56)c(-c5cc(Cl)ccc5OC(F)F)n4)C[C@@H]3C2)CC1` [Example 22, N-[1-[2-[(3aS,6aR)-2-[(1-acetyl-4-piperidyl)methyl]-1,3,3a,4,6,6a-hexahydropyrrolo[3,4-c]pyrrol-5-yl]-2-oxo-ethyl]-3-[5-chloro-2-(difluoromethoxy)phenyl]pyrazol-4-yl]pyrazolo[1,5-a]pyrimidine-3-carboxamide], the Ki amounted to 0.95 nM in assay [1] and 0.94 nM in assay [2]. Besides, the EC50 in assay [3] was 158 nM.

In the case of `CCOC(=O)N1CCC(CN2C[C@@H]3CN(C(=O)Cn4cc(NC(=O)c5cnn6cccnc56)c(-c5cc(Cl)ccc5OC(F)F)n4)C[C@@H]3C2)CC1` [Example 23, ethyl 4-[[(3aS,6aR)-5-[2-[3-[5-chloro-2-(difluoromethoxy)phenyl]-4-(pyrazolo[1,5-a]pyrimidine-3-carbonylamino)pyrazol-1-yl]acetyl]-1,3,3a,4,6,6a-hexahydropyrrolo[3,4-c]pyrrol-2-yl]methyl]piperidine-1-carboxylate], the Ki was determined as 0.81 nM in assay [1] and 0.7 nM in assay [2]. The EC50 in assay [3] worked out at 8.6 nM.

As for `CN1CC[C@@H]2[C@@H](CCN2C(=O)Cn2cc(NC(=O)c3cnn4cccnc34)c(-c3cc(Cl)ccc3OC(F)F)n2)C1` [Example 24, N-[1-[2-[(3aS,7aR)-5-methyl-3,3a,4,6,7,7a-hexahydro-2H-pyrrolo[3,2-c]pyridin-1-yl]-2-oxo-ethyl]-3-[5-chloro-2-(difluoromethoxy)phenyl]pyrazol-4-yl]pyrazolo[1,5-a]pyrimidine-3-carboxamide], the figures for the Ki in assay [1] and in assay [2] were 2.02 nM and 0.78 nM, respectively. Further, the EC50 in assay [3] stood at 4.9 nM.

Turning to `CN1C[C@H]2CCN(C(=O)Cn3cc(NC(=O)c4cnn5cccnc45)c(-c4cc(Cl)ccc4OC(F)F)n3)C[C@H]2C1` [Example 25, N-[1-[2-[(3aR,7aS)-2-methyl-3,3a,4,6,7,7a-hexahydro-1H-pyrrolo[3,4-c]pyridin-5-yl]-2-oxo-ethyl]-3-[5-chloro-2-(difluoromethoxy)phenyl]pyrazol-4-yl]pyrazolo[1,5-a]pyrimidine-3-carboxamide], the values for the Ki in assay [1] and in assay [2] were 1.61 nM and 0.66 nM, respectively. In addition, the EC50 in assay [3] was 121 nM.

As for `O=C(Nc1cn(CC(=O)N2C[C@H]3CN(CC4CCOCC4)C[C@H]3C2)nc1-c1cc(Cl)ccc1OC(F)F)c1cnn2cccnc12` [Example 26, N-[1-[2-[(3aR,6aS)-2-(tetrahydropyran-4-ylmethyl)-1,3,3a,4,6,6a-hexahydropyrrolo[3,4-c]pyrrol-5-yl]-2-oxo-ethyl]-3-[5-chloro-2-(difluoromethoxy)phenyl]pyrazol-4-yl]pyrazolo[1,5-a]pyrimidine-3-carboxamide], the Ki turned out to be 0.94 nM in assay [1] and 0.77 nM in assay [2]. In assay [3], the EC50 came out at 6.2 nM.

As to `CS(=O)(=O)CCCN1C[C@@H]2CN(C(=O)Cn3cc(NC(=O)c4cnn5cccnc45)c(-c4cc(Cl)ccc4OC(F)F)n3)C[C@@H]2C1` [Example 27, N-[1-[2-[(3aS,6aR)-2-(3-methylsulfonylpropyl)-1,3,3a,4,6,6a-hexahydropyrrolo[3,4-c]pyrrol-5-yl]-2-oxo-ethyl]-3-[5-chloro-2-(difluoromethoxy)phenyl]pyrazol-4-yl]pyrazolo[1,5-a]pyrimidine-3-carboxamide], the Ki was 0.55 nM in assay [1] and 0.46 nM in assay [2]. In addition, the EC50 in assay [3] was 144 nM.

One may read the Ki as a measure of affinity in units of concentration, obtained from inhibition or displacement.
